Consider 109 molecules from a melting point compilation (Tetko et al.).

Consider `CCOC(=O)c1nn(-c2ccc(C)cc2)c(C)c1C(=O)C1=NOC2C(=O)N(c3ccc(OC)cc3)C(=O)C12` (centres undefined), for which the melting point was 221 °C.

`NC(=O)c1cccc(C(F)(F)F)c1F` had a melting point of 96 °C.

`CCOC(=O)c1c(SC)nn(C(=O)c2ccc([N+](=O)[O-])cc2)c1N` showed a melting point of 158 °C.

For the molecule `CC(c1ncncc1F)C(O)(Cn1cncn1)c1ccc(F)cc1F` (centres undefined), the melting point amounted to 128 °C.

With `C#CC1(O)C=CC2C3CCC4=CC(=O)CCC4C3CCC21CC` (centres undefined), the melting point was determined as 198 °C.

`Cn1c(=O)c(C2=NNC(=O)C2=NNc2cc(Cl)ccc2Cl)c(O)c2ccccc21` displayed a melting point of 284 °C.

Turning to `O=C(c1ccccc1)c1cccc([N+](=O)[O-])c1`, the melting point lay within 92 to 94 °C.

`C1CCC2(CC1)OCC(C1OC3(CCCCC3)OC1C1COC3(CCCCC3)O1)O2` (centres undefined) came in with a melting point of 82 to 84 °C.

The molecule `Nc1ccc(SSc2ccc(N)cc2)cc1` registered a melting point of 77 °C.

For the molecule `Cc1ccc(O)cc1Br`, the melting point was 56 °C.

With `O=C1C2CC(CN3CCCCC23)C2CCCCN12` (centres undefined), the melting point came to 111 °C.

With `OC1OC(C2CCCCC2)Cc2ccccc21` (centres undefined), the melting point is 87.2 to 90 °C.

The molecule `NCCN(CCN)CCN` gave a melting point of -16 °C.

Take `COc1cc(OC(C)=O)c2c(=O)c(O[C@@H]3O[C@H](COC(C)=O)[C@H](OC(C)=O)[C@H](OC(C)=O)[C@@H]3O[C@@H]3O[C@H](C)[C@H](OC(C)=O)[C@H](OC(C)=O)[C@@H]3OC(C)=O)c(-c3ccc(OC(C)=O)c(OC(C)=O)c3)oc2c1`: the melting point was in the range of 117 to 120 °C.

With `COc1ccc(O)c([N+](=O)[O-])c1`, the melting point was determined as 79 °C.

As to `CC(=O)Nc1ccccc1CCc1ccccc1NC(C)=O`, the melting point stood at 250 °C.

`O=[N+]([O-])c1ccc(S(=O)(=O)N2CCCC2)cc1` showed a melting point of 151 to 153 °C.

Turning to `Nc1ncnc2c1ncn2CCCNC(=O)c1cc([N+](=O)[O-])cc([N+](=O)[O-])c1`, the melting point came to 234 °C.

Molecule `O=[N+]([O-])c1c(Cl)ccc(O)c1Cl` returned a melting point of 87 °C.

In turn, `CC(=O)c1cc(C(C)(C)C)c(O)c(C(C)(C)C)c1` returned a melting point of 147 °C.

`Nc1cccc(COc2ccccc2)c1` returned a melting point of 45 to 47 °C.

For `O=Cc1ccc(N2CCCC2)c([N+](=O)[O-])c1`, the melting point is 103 to 105 °C.

The molecule `Cc1ccc(C)c2c1C(=O)c1ccccc1C2=O` yielded a melting point of 140 °C.

For the molecule `CCOC(=O)CC(=O)CCl`, the melting point was -8 °C.

In turn, `CCOCCOC(=O)C(C)Oc1ccc(Oc2ncc(C(F)(F)F)cc2Cl)cc1` (centres undefined) showed a melting point of 60 °C.

`CCc1cc(C#N)ccc1N` registered a melting point of 63 °C.

Molecule `Nc1ncnc(Nc2ccc(Cl)cc2)n1` displayed a melting point of 233 °C.

Molecule `NC(=O)C(Cc1ccccc1)NC(=O)OCc1ccccc1` (centres undefined) came in with a melting point of 162 to 164 °C.

Consider `Brc1cccc(Br)c1`, for which the melting point is -7 °C.

With `CC(=O)Nc1cc(Cl)c(F)cc1[N+](=O)[O-]`, the melting point came to 111 °C.

The molecule `Cc1ccc(C=Nc2n[nH]c(N=Cc3ccc(C)cc3)c2Cc2ccc(Cl)cc2)cc1` returned a melting point of 248 to 250 °C.

With `CC(=O)C(=O)c1cc(C(=O)C(C)=O)c([N+](=O)[O-])cc1[N+](=O)[O-]`, the melting point came out at 119 °C.

For the molecule `CCOC(=O)C1=C(C)NC(=O)NC1c1ccccc1[N+](=O)[O-]` (centres undefined), the melting point came out at 220 °C.

Molecule `O=C(Oc1c(F)c(F)c(F)c(F)c1F)c1ccc(OC2CCOCC2)cc1` registered a melting point of 111 to 114 °C.

As to `Nc1ccccc1-c1cnco1`, the melting point is 54 to 56 °C.

As to `Cc1c(O)cccc1C(=O)O`, the melting point was determined as 144 °C.

Molecule `CC1(C)OC2(C)CCC1C(=O)OC2(C)C` (centres undefined) came in with a melting point of 78 °C.

As for `O=C(O)c1csc2ccc(Br)cc12`, the melting point was in the range of 284 to 287 °C.

With `Oc1cccc(S)c1`, the melting point is 16.5 °C.

With `Br/C(=C(/Br)c1ccccc1)c1ccccc1`, the melting point is 228 °C.

Regarding `N#CC(c1ccc(O)cc1)N1CCOCC1` (centres undefined), the melting point lay in the range of 148 to 150 °C.

Molecule `Cc1cc(Br)cnc1N` returned a melting point of 92 to 94 °C.

The molecule `CCCCCCCCCc1ccccc1` came in with a melting point of -24 °C.

Regarding `CCOc1ccc(CCO)cc1`, the melting point came out at 42 °C.

`O=c1[nH][nH]c(=O)[nH]1` showed a melting point of 250 °C.

Molecule `Nc1n[nH]c(N)c1Cc1ccc(F)cc1` displayed a melting point of 159 to 161 °C.

`O=[N+]([O-])c1ccc(C2Nn3c(COc4ccccc4)nnc3S2)cc1` (centres undefined) gave a melting point of 184 °C.

As to `N#CC(=Cc1ccc([N+](=O)[O-])cc1)C(N)=S`, the melting point turned out to be 311 °C.

`Nc1nc(N)nc(Cl)n1` yielded a melting point of 320 °C.

As to `Cc1ccncc1S(=O)(=O)O`, the melting point was determined as 300 °C.

Consider `CN1CCN(c2ccc(CO)cc2)CC1`, for which the melting point is 118 to 119 °C.

`CCOC(=O)C1=C(C)NC(C)=C(C(=O)OCC)C1c1ccc2c(c1)OCO2` showed a melting point of 135 °C.

Molecule `N#Cc1c(F)cccc1Oc1ccccc1` came in with a melting point of 92 to 96 °C.

As for `NC(=O)c1ccccc1C(N)=O`, the melting point turned out to be 222 °C.

In turn, `O=C(O)c1cc(O)[nH]c(=O)c1` returned a melting point of 300 °C.

As to `Cc1ccc([N+](=O)[O-])cc1I`, the melting point was 61 °C.

`CC(C)(C#N)C#N` came in with a melting point of 31.5 °C.

Take `NC(CC(F)(F)F)C(=O)O` (centres undefined): the melting point lay in the range of 256 to 258 °C.

The molecule `N[C@@H]1CCc2ccccc21` gave a melting point of 15 °C.

On to `CC1=C(C(=O)O)CCC1(C)C`, for which the melting point is 135 °C.

For the molecule `Cc1nn(C)c2sc(C(=O)O)cc12`, the melting point came to 260 °C.

The molecule `c1ccc(-c2csc3nc4ccccc4n23)cc1` returned a melting point of 140 to 142 °C.

In turn, `O=C(O)Cc1ccc(CC(=O)O)cc1` displayed a melting point of 254 °C.

Molecule `NNC(=S)NN` registered a melting point of 168 to 172 °C.

Consider `NNC(=O)COc1ccc(Cl)cc1Cl`, for which the melting point was 153 to 157 °C.

Take `O=C(OCc1ccccc1Cl)ON1C(=O)CCC1=O`: the melting point lay within 103 to 105 °C.

Turning to `Cc1cccc(OCC(=O)O)c1`, the melting point amounted to 104 °C.

Regarding `N[C@@H](Cc1ccc(F)cc1)C(=O)O`, the melting point worked out at 253 °C.

For the molecule `CCOC(=O)CC(C(C)=O)C(=O)OCC` (centres undefined), the melting point is -8 °C.

With `CC(C)=CC1C(C(=O)OCN2C(=O)C3=C(CCCC3)C2=O)C1(C)C` (centres undefined), the melting point turned out to be 69 °C.

In the case of `C#CC1(O)CCC2C3CCC4CC5(CCC4(C)C3CCC21C)OCCO5` (centres undefined), the melting point is 197 to 199 °C.

`Cn1c(/C(C#N)=N/Nc2cc(Cl)ccc2Cl)nc2ccccc21`: the melting point came out at 245 °C.

`C=CCOC(=O)OCCOCCOC(=O)OCC=C` gave a melting point of -4 °C.

On to `O=C=Nc1ccc2c(c1)OCCOCCOCCOCCO2`, for which the melting point was 35 to 39 °C.

For `COc1ccc(OCC(N)=O)cc1`, the melting point was 114 to 116 °C.

With `Cc1ccc(C2C(C#N)=C(N)N3C(=C2C#N)Sc2ccccc23)cc1` (centres undefined), the melting point fell in the range of 200 to 202 °C.

Take `COc1ccc(C=C(CC(=O)O)C(=O)O)cc1`: the melting point was 186 to 188 °C.

On to `CC(=O)Nc1cccc(-n2nnnc2S)c1`, for which the melting point is 185 to 187 °C.

For `COc1ccccc1/N=N/c1c(N)nn2c(-c3ccccc3)cc(=O)[nH]c12`, the melting point is 303 to 305 °C.

`Cc1ccc(C(c2ccc(C)o2)c2ccccc2O)o1`: the melting point is 65 °C.

Molecule `O=C(O)c1cc(Cl)c(C(=O)O)cc1Cl` displayed a melting point of 306 °C.

`O=C(Cl)c1ccc2nonc2c1` yielded a melting point of 55 to 58 °C.

Molecule `O=S(=O)(O)CCN(CCO)CCO` returned a melting point of 152 to 154 °C.

Molecule `CNc1ccc(NC)c2c1C(=O)c1ccccc1C2=O` had a melting point of 220 °C.

As to `CCCCCCCCN(C)CCCCCCCC`, the melting point was -30.1 °C.

`O=C1C=C(NCc2ccc([N+](=O)[O-])cc2)C(=O)c2ccccc21`: the melting point worked out at 235 °C.

`O=C(O)CNC(=O)CCl` registered a melting point of 102 °C.

`Nc1ccc(-c2ccccc2)cn1` showed a melting point of 135 °C.

Molecule `O=c1c(O)c(O)c1=O` yielded a melting point of 293 °C.

Take `O=C(O)C(F)(F)C(F)(F)C(F)(F)C(F)(F)C(F)(F)C(F)(F)F`: the melting point is 31 to 36 °C.

For `CCCCCCCC1CCCC1`, the melting point was -53 °C.

Turning to `C#Cc1ccc2nccnc2c1`, the melting point was 98 °C.

Regarding `FC(F)(F)c1ccccc1-n1cc[nH]c1=S`, the melting point lay in the range of 236 to 238 °C.

For the molecule `Cc1ncc(C=O)n1C`, the melting point lay in the range of 76 to 77 °C.

Take `N#CC1=C(N)OC2(C(=O)Nc3ccccc32)C2=C1CCCC2` (centres undefined): the melting point was determined as 231 °C.

In turn, `CC(O)(c1ccc(Cl)cc1)c1ccc(Cl)cc1` showed a melting point of 70 °C.

Regarding `Cc1ccc(O)cc1N`, the melting point turned out to be 158 °C.

Take `CC(=O)C1=CCC2(C)C(CCC3C4CCC(=O)C4(C)CCC32)C1` (centres undefined): the melting point fell in the range of 152 to 153 °C.

Regarding `N#C/C(=N/Nc1cccc(C(F)(F)F)c1)C(=O)c1cccs1`, the melting point came to 173 °C.

`O=C(O)c1ccnc(C(=O)O)c1` came in with a melting point of 249 °C.

As for `Cc1c(C(=O)Cl)cnn1-c1ccccc1`, the melting point lay in the range of 147 to 148 °C.

Consider `N#CC1C(=N)Oc2c(c(=O)oc3ccccc23)C1c1ccc(Br)cc1` (centres undefined), for which the melting point was 254 °C.

In the case of `CCC(=O)c1cccc([N+](=O)[O-])c1`, the melting point was determined as 101 °C.

As for `O=C(CCc1ccccc1)NNc1ccccc1`, the melting point came to 117 °C.

The molecule `CC1CC2C3CCC4=CC(=O)C=CC4(C)C3C(=O)CC2(C)C1(O)C(=O)CO` (centres undefined) displayed a melting point of 202 °C.

`CCOC(=O)[C@H](Cc1ccc(O)cc1)NC(=O)c1ccccc1` displayed a melting point of 118 to 121 °C.

In turn, `COc1ccc(C2CC(c3ccc4ccccc4c3)=NN2C(N)=O)cc1` (centres undefined) returned a melting point of 173 to 175 °C.

Turning to `Cn1cc(Br)c(N)n1`, the melting point is 98 °C.

Turning to `CCCCCCCNCCCCCCC`, the melting point was found to be 31.5 °C.

Usually melting point stands for the temperature of the solid-liquid transition.
